Reference: PubChem BioAssay (NCI)
Several values for one entry are separate records, joined by “and”; a condition that tells them apart may be missing. Equal entries are not always repeated.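 These data come from cells grown in 96-well plates and exposed to compound for 48 hours at five concentrations. GI50: concentration for 50% inhibition of growth. TGI is the concentration that stops growth completely.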

Key:
Experiment in all cases: NCI anticancer screen, dose series, 48 h
DLD-1 colon = test system: DLD-1 colon
DMS 114 small cell lung = test system: DMS 114 small cell lung
DMS 273 small cell lung = test system: DMS 273 small cell lung
HOP-18 NSCLC = test system: HOP-18 NSCLC
M19-MEL melanoma = test system: M19-MEL melanoma
SNB-78 CNS = test system: SNB-78 CNS
XF 498 CNS = test system: XF 498 CNS
RXF-631 renal = test system: RXF-631 renal
MDA-N = test system: MDA-N
SN12K1 renal = test system: SN12K1 renal

| Structure (SMILES) | TGI (DLD-1 colon) | TGI (DMS 114 small cell lung) | TGI (DMS 273 small cell lung) | TGI (HOP-18 NSCLC) | TGI (M19-MEL melanoma) | TGI (SNB-78 CNS) | TGI (XF 498 CNS) | TGI (RXF-631 renal) | TGI (MDA-N) | other results |
| --- | --- | --- | --- | --- | --- | --- | --- | --- | --- | --- |
| c1ccc2cc(-c3cc4ccccc4s3)ccc2c1 | > 100 µM | > 100 µM | > 100 µM | > 100 µM | > 100 µM | > 100 µM | > 100 µM |  |  |  |
| O=c1/c(=C/c2ccccc2[N+](=O)[O-])sc2nnc(-c3ccco3)n12 | 97.1 µM | 40.4 µM | > 100 µM | 57.8 µM | 38.3 µM | 72.3 µM | 34.5 µM |  |  |  |
| OC(CC1SCCCS1)c1ccccc1 (stereo not drawn) | > 100 µM | > 100 µM | > 100 µM | > 100 µM | > 100 µM |  | > 100 µM |  |  |  |
| CC(C)N(C(=O)C12C3C4C1C1C4(C#N)C3C12C#N)C(C)C (stereo not drawn) | > 100 µM | > 100 µM |  | > 100 µM | > 100 µM | > 100 µM | > 100 µM | > 100 µM |  |  |
| N=C(N)C1CN(CCc2c[nH]c3ccccc23)C(=O)NC1=O (stereo not drawn) |  |  |  |  |  |  |  |  | > 100 µM |  |
| COc1cc(C(=O)N2CCN(C=O)C2=S)cc(OC)c1OC |  |  |  |  |  |  |  |  | 34.5 µM | GI50 (MDA-N): 17.9 µM |
| O=C(CCN(C(=O)O)S(=O)(=O)c1ccc(NC(=O)c2ccccc2)cc1)Nc1ccccc1 | > 100 µM | > 68.5 µM | > 82.4 µM | > 100 µM | > 100 µM | > 100 µM | > 100 µM | > 100 µM |  |  |
| COc1cccc2c1C(=O)c1c(O)c3c(c(O)c1C2=O)C[C@@](O)(C(=O)CO)C[C@@H]3OC1CC(N)CC(C)O1 (stereo partly drawn) | 1.18 µM and 2.67 µM | 0.167 µM and 0.299 µM | 0.202 µM and 0.129 µM | 0.906 µM and 0.445 µM | 0.186 µM and 0.174 µM | 1.73 µM and 2.02 µM | 0.144 µM and 0.101 µM | 0.9 µM | 0.274 µM and 0.132 µM | GI50 (DLD-1 colon): 0.127 µM; GI50 (DMS 114 small cell lung): 0.0238 µM and 0.0476 µM; GI50 (DMS 273 small cell lung): 0.0134 µM and 0.0303 µM; GI50 (HOP-18 NSCLC): 0.0713 µM; GI50 (M19-MEL melanoma): 0.0363 µM; GI50 (MDA-N): 0.0272 µM; TGI (SN12K1 renal): 0.0846 µM; GI50 (SNB-78 CNS): 0.085 µM; GI50 (XF 498 CNS): 0.0251 µM and 0.052 µM |
| Cc1c2n(c(=O)[nH]c1=O)C1OC(CO)C(O2)C1O (stereo not drawn) | > 100 µM | > 100 µM | > 100 µM |  | > 100 µM | > 100 µM |  |  |  |  |
| CSc1nc(=O)n(CCC#N)nc1SC |  |  |  |  |  |  |  |  | 51.4 µM |  |
| CCCCOC(=O)CNC(=O)OC/C=C/C#CC#C/C=C/COC(=O)NCC(=O)OCCCC | > 100 µM | > 100 µM |  | > 10 µM | > 100 µM | > 10 µM | > 10 µM | > 100 µM |  | GI50 (DLD-1 colon): > 100 µM; GI50 (DMS 114 small cell lung): > 100 µM; GI50 (M19-MEL melanoma): > 100 µM; GI50 (RXF-631 renal): > 100 µM |
| Nc1nc(Cl)cc(NCCCCCCCCNc2cc(Cl)nc(N)n2)n1 | > 100 µM |  | > 100 µM | > 100 µM | > 100 µM | > 100 µM | 13.7 µM |  |  |  |
| CCC12CCCN(Cc3ccccc3)C1c1c(n(C)c3ccccc13)CC2 (stereo not drawn) | > 253 µM |  | > 253 µM |  | > 253 µM |  |  |  |  |  |
| O=C1CCC2(c3ccc(Cl)cc3)Nc3ncccc3N12 (stereo not drawn) | > 100 µM | > 100 µM |  |  | > 100 µM | > 100 µM | > 100 µM |  |  |  |
| COc1ccc2occ(CCC(=O)O)c2c1 | > 100 µM | > 100 µM | > 100 µM | > 100 µM | > 100 µM | > 100 µM | > 100 µM |  |  |  |
| CCOC(=O)C(C#N)C1=CC(=O)C(=O)c2ccc(OC)cc21 (stereo not drawn) |  |  |  |  |  |  |  |  | 17.1 µM |  |
| O=C(Nc1ccc2ncccc2c1)Nc1ccc2ncccc2c1 |  |  |  |  |  |  |  |  | > 100 µM |  |
| O=C(Nc1ccn(CCO)c(=O)n1)c1ccccc1 | > 100 µM | > 100 µM | > 100 µM | > 100 µM | > 100 µM | > 100 µM |  | > 100 µM |  |  |
| O=[N+]([O-])c1cccc(C2=NN(c3ccccc3)C[N+](c3ccc(Br)cc3)=N2)c1 | > 100 µM |  | > 100 µM | > 100 µM | > 100 µM | > 100 µM | > 100 µM |  |  |  |
| CC(C)(C)NNC(=O)CCn1[nH]c(=O)c(Cl)c(Cl)c1=O | > 100 µM | > 100 µM | > 100 µM | > 100 µM | > 100 µM |  | > 100 µM | > 100 µM |  |  |
| CCOC(=O)c1cnc2c(ccc3[nH]n(C)nc32)c1=O | > 100 µM | > 100 µM | 73.4 µM | > 100 µM | > 100 µM | 38.6 µM | > 100 µM | > 100 µM |  |  |

| Structure (SMILES) | TGI (DLD-1 colon) | TGI (DMS 114 small cell lung) | TGI (DMS 273 small cell lung) | TGI (HOP-18 NSCLC) | TGI (M19-MEL melanoma) | TGI (SNB-78 CNS) | TGI (XF 498 CNS) | TGI (RXF-631 renal) | TGI (MDA-N) | other results |
| --- | --- | --- | --- | --- | --- | --- | --- | --- | --- | --- |
| O=C(/C=C/c1ccccc1)CCC1C(=O)c2ccccc2C1=O |  |  |  |  |  |  |  |  | > 100 µM |  |
| CCCCCCCCCCCCCC(=O)OCC(C[As](=O)(O)O)OC(=O)CCCCCCCCCCCCC (stereo not drawn) | > 100 µM | > 100 µM | > 100 µM | > 100 µM |  | > 100 µM | > 100 µM | > 100 µM |  |  |
| C(=NCCN1CCOCC1)=NC1CCCCC1 |  |  |  |  |  |  |  |  | > 100 µM |  |
| CN(C)CCNC(=O)c1cccc2ccc(-c3ccc(O)cc3)nc12 | 28 µM and 13.4 µM | 10.8 µM and 7.31 µM | 6.07 µM | 7.14 µM and 8.35 µM | 7.04 µM and 6.83 µM | 20.3 µM |  |  | 8.3 µM | GI50 (DLD-1 colon): 2.07 µM; GI50 (HOP-18 NSCLC): 2.44 µM; GI50 (M19-MEL melanoma): 2.12 µM; GI50 (SN12K1 renal): 0.383 µM; TGI (SN12K1 renal): 3.21 µM and 2.35 µM |
| Cc1ccc(S(=O)(=O)Nc2ccccc2C=O)cc1 |  |  |  |  |  |  |  |  | 42.9 µM |  |
| CC(C)CCC1CC2C(=O)N(c3ccccc3)C(=O)C2c2[nH]c3ccccc3c21 (stereo not drawn) | 15 µM | 2.81 µM | 2.72 µM | 21.6 µM | 20 µM | 25.6 µM | 6.08 µM | 13.8 µM |  |  |
| Clc1ccc2c(c1)[nH]c1c2nc2ccccn21 |  |  |  | > 100 µM | > 100 µM and 47.6 µM | 83.9 µM and 61.6 µM | 89.1 µM and 29.8 µM | > 100 µM and 69.2 µM |  | GI50 (HOP-18 NSCLC): 41.9 µM; GI50 (M19-MEL melanoma): 42.3 µM and 20.1 µM; GI50 (XF 498 CNS): 35.9 µM and 16 µM |
| CC12C/C(=C\c3ccccc3)C(=O)C3C1CCCC32 | > 100 µM | > 100 µM | > 100 µM | > 100 µM | > 100 µM |  | > 100 µM | > 100 µM |  |  |
| COc1cccc(C2CC(C)(O)Oc3cc4c(cc32)OCO4)c1O (stereo not drawn) |  |  |  |  |  |  |  |  | 10.4 µM |  |
| CC(=O)CCn1c(=S)sc2ccccc21 |  |  |  |  |  |  |  |  | > 100 µM |  |
| O=CCC1CCCCC1 |  |  |  |  |  |  |  |  | > 100 µM |  |
| COC(=O)C(C(=O)c1ccccc1)C(C(=O)C(=O)Nc1ccc(OC)cc1OC)C(=O)C(=O)c1ccc(C)cc1 (stereo not drawn) | > 100 µM | > 100 µM | > 100 µM | > 100 µM | > 100 µM | > 100 µM | > 100 µM | > 100 µM |  |  |
| CC(C)C(CCl)NC(=O)c1cccc(C(=O)N[C@H](CCl)C(C)C)n1 (stereo in doubt) | > 100 µM | > 100 µM | > 100 µM |  | > 100 µM | > 100 µM | > 100 µM | > 100 µM |  |  |
| O=C1c2ccccc2C(=O)N1CCn1ccc(NC(c2ccccc2)(c2ccccc2)c2ccccc2)nc1=O | 38.9 µM | 50 µM | 36.6 µM | 42.6 µM | 32.6 µM | > 100 µM | 30.3 µM | 40.4 µM |  |  |
| COC(=O)C1c2cc3c(cc2C(OC2OC(C)C(OC)C(C)(OC)C2OC)CC1(C)O)C(=O)c1c(O)cc2c(c1C3=O)OC1OC2(C)C(O)C([N+](C)(C)[O-])C1O (stereo not drawn) |  |  |  |  |  |  |  |  | 1.03 µM |  |
| N.N.N.N.O=C([O-])CCl.O=C([O-])CCl.[Co+3].[O-][Cl+3]([O-])([O-])[O-] | > 100 µM |  |  |  |  | > 100 µM |  |  |  | GI50 (DLD-1 colon): > 100 µM; GI50 (SNB-78 CNS): > 100 µM |
| COC(=O)C[C@](O)(CCCC(C)(C)O)C(=O)O[C@@H]1C(OC)=C[C@]23CCCN2CCc2cc4c(cc2[C@H]13)OCO4 | 0.228 µM | 0.0162 µM | < 0.0204 µM | 0.418 µM | 0.0866 µM | 0.285 µM | 0.0391 µM |  | > 25 µM | TGI (SN12K1 renal): 0.0481 µM |
| CC(C)C1=CC23CCC4C(C)(C(=O)O)CCCC4(C)C2CC1C1C(=O)N(c2ccc(Cc4ccc(N5C(=O)C6C7CC8C9(C)CCCC(C)(C(=O)O)C9CCC8(C=C7C(C)C)C6C5=O)cc4)cc2)C(=O)C13 (stereo not drawn) |  |  |  |  |  |  |  |  | 24.8 µM |  |
| O=C(O)c1nnsc1-c1ccc(-c2snnc2C(=O)O)cc1 |  |  |  |  |  |  |  |  | > 100 µM |  |
| Cc1cn2c(=O)c3ncn(C4OC(CO)C(O)C4O)c3n(C)c2n1 (stereo not drawn) | > 100 µM | > 100 µM | > 100 µM | > 100 µM | > 100 µM | > 100 µM |  | > 100 µM |  |  |
